Active and inactive are the calls of the source. The rule behind the calls is not given here.
Columns and labels:
Assay type in all cases: functional, cell-based
[1] = test system: HL-60; test: Cytotoxicity against human HL60 cells assessed as reduction in cell viability at 40 uM after 48 hrs by MTT assay
[2] = test system: SW480; test: Cytotoxicity against human SW480 cells assessed as reduction in cell viability at 40 uM after 48 hrs by MTT assay
[3] = test system: B-cell line; test: Immunosuppressive activity in BALB/c mouse B cells assessed as inhibition of LPS-induced cell proliferation by measuring reduction in uptake of [3H]-thymidine after 8 hrs by beta scintillation counting method
[4] = test system: RAW264.7; test: Inhibition of NO production in mouse RAW264.7 macrophages at 40 uM incubated for 18 hrs by Griess reagent based assay
[5] = test system: A549; test: Cytotoxicity against human A549 cells assessed as reduction in cell viability at 40 uM after 48 hrs by MTT assay
[6] = test system: SMMC-7721; test: Cytotoxicity against human SMMC7721 cells assessed as reduction in cell viability at 40 uM after 48 hrs by MTT assay
[7] = test system: MCF7; test: Cytotoxicity against human MCF7 cells assessed as reduction in cell viability at 40 uM after 48 hrs by MTT assay
[8] = test system: T-cell; test: Immunosuppressive activity in BALB/c mouse T cells assessed as inhibition of ConA-induced cell proliferation by measuring reduction in uptake of [3H]-thymidine after 8 hrs by beta scintillation counting method
[9] = test system: RAW264.7; test: Inhibition of NO production in mouse RAW264.7 macrophages incubated for 18 hrs by Griess reagent based assay; details: RAW264.7, 18 h
[10] = test system: A549; test: Cytotoxicity against human A549 cells assessed as reduction in cell viability up to 40 uM after 48 hrs by MTT assay
[11] = test system: HL-60; test: Cytotoxicity against human HL60 cells assessed as reduction in cell viability up to 40 uM after 48 hrs by MTT assay
[12] = test system: SW480; test: Cytotoxicity against human SW480 cells assessed as reduction in cell viability up to 40 uM after 48 hrs by MTT assay
[13] = test system: SMMC-7721; test: Cytotoxicity against human SMMC7721 cells assessed as reduction in cell viability up to 40 uM after 48 hrs by MTT assay
[14] = test system: MCF7; test: Cytotoxicity against human MCF7 cells assessed as reduction in cell viability up to 40 uM after 48 hrs by MTT assay

Compound	Activity [1]	Activity [2]	IC50 [3] [µM]	inhibition [4]	Activity [5]	Activity [6]	Activity [7]	IC50 [8] [µM]	IC50 [9] [µM]	Activity [10]	Activity [11]	Activity [12]	Activity [13]	Activity [14]
Cc1ccc2c(c1)[C@H](C)C[C@H](O)[C@@H]1C(=O)OC[C@@H]21	inactive	inactive	22.4	inactive	inactive	inactive	inactive	–	–	–	–	–	–	–
C[C@H]1C[C@@H](O)C2=C(COC2=O)[C@@H]2CC(C)(C)C[C@@H]12	inactive	inactive	–	inactive	inactive	inactive	inactive	–	–	–	–	–	–	–
Cc1cc2c(cc1O)C1=C(CC[C@H]2C)C(=O)OC1	inactive	inactive	13.6	inactive	inactive	inactive	inactive	16.7	–	–	–	–	–	–
C[C@@H]1CC[C@H]2C(C(=O)O)=C[C@@H]3C[C@@](C)(C(=O)O)C[C@@]132	inactive	inactive	–	–	inactive	inactive	inactive	–	22.7	–	–	–	–	–
C[C@H]1[C@H]2CC(C)(C)C[C@@H]2C2=C(C[C@@H]1O)C(=O)OC2	inactive	inactive	–	inactive	inactive	inactive	inactive	–	–	–	–	–	–	–
C[C@@H]1C[C@H](O)C2=C(COC2=O)[C@]23O[C@H]2C(C)(C)C[C@H]13	inactive	inactive	–	inactive	inactive	inactive	inactive	–	–	–	–	–	–	–
C[C@@H]1C[C@H](O)C2=C(COC2=O)[C@]23O[C@H]2C(C)(C)C[C@]13O	inactive	inactive	–	inactive	inactive	inactive	inactive	–	–	–	–	–	–	–
C[C@@H]1C[C@H](O)C2=C(COC2=O)C2=C[C@](C)(CO)C[C@@H]21	–	–	–	inactive	–	–	–	–	–	Active	Active	Active	Active	Active
C[C@H]1CCC2=C(COC2=O)[C@@]2(O)CC(C)(C)C[C@@H]12	–	–	–	inactive	–	–	–	–	–	Active	Active	Active	Active	Active
C[C@@H]1C[C@H](O)C2=C(COC2=O)C2=CC(C)(C)C[C@@H]21	–	–	–	inactive	–	–	–	–	–	Active	Active	Active	Active	Active
C[C@H]1CCC2=C(COC2=O)[C@@H]2CC(C)(C)[C@H](O)[C@@H]12	–	–	–	inactive	–	–	–	–	–	Active	Active	Active	Active	Active

From ChEMBL document CHEMBL4616661, “Sesquiterpenoids from Cultures of the Basidiomycetes Irpex lacteus” (J Nat Prod, 2020)
